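Cultured in 96-well plates, cells were exposed to test compound for 48 hours across five concentrations. GI50 is the concentration that inhibits growth by half.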 Calls of active or inactive are those of the source. No stated cut-off is given here; in the data, active = GI50 up to about 1.1 µM and inactive = higher.
What was measured:
Assay in all cases: NCI tumour cell line growth inhibition, 48 h
786-0 = tested on: 786-0
A498 = tested on: A498
A549 = tested on: A549
ACHN = tested on: ACHN
CCRF-CEM = tested on: CCRF-CEM
COLO 205 = tested on: COLO 205
DLD-1 = tested on: DLD-1
DMS-114 = tested on: DMS-114
DMS-273 = tested on: DMS-273
EKVX = tested on: EKVX
HCC 2998 = tested on: HCC 2998
HCT-116 = tested on: HCT-116
HCT-15 = tested on: HCT-15
HL-60 = tested on: HL-60
HOP-18 = tested on: HOP-18
HOP-62 = tested on: HOP-62
HOP-92 = tested on: HOP-92
HT-29 = tested on: HT-29
IGROV-1 = tested on: IGROV-1
K562 = tested on: K562
KM-20L2 = tested on: KM-20L2
KM12 = tested on: KM12
LOX IMVI = tested on: LOX IMVI
LXFL 529 = tested on: LXFL 529
M14 = tested on: M14
M19-MEL = tested on: M19-MEL
MOLT-4 = tested on: MOLT-4
Malme-3M = tested on: Malme-3M
NCI-H226 = tested on: NCI-H226
NCI-H23 = tested on: NCI-H23
NCI-H460 = tested on: NCI-H460
NCI-H522 = tested on: NCI-H522
OVCAR-3 = tested on: OVCAR-3
OVCAR-4 = tested on: OVCAR-4
OVCAR-5 = tested on: OVCAR-5
OVCAR-8 = tested on: OVCAR-8
RPMI-8226 = tested on: RPMI-8226
RXF 393 = tested on: RXF 393
RXF 631 = tested on: RXF 631
SF-268 = tested on: SF-268
SF-295 = tested on: SF-295
SF-539 = tested on: SF-539
SK-MEL-28 = tested on: SK-MEL-28
SK-MEL-2 = tested on: SK-MEL-2
SK-MEL-5 = tested on: SK-MEL-5
SK-OV-3 = tested on: SK-OV-3
SN12C = tested on: SN12C
SNB-19 = tested on: SNB-19
SNB-75 = tested on: SNB-75
SNB-78 = tested on: SNB-78
SR = tested on: SR
SW-620 = tested on: SW-620
TK-10 = tested on: TK-10
U-251 = tested on: U-251
UACC-257 = tested on: UACC-257
UACC-62 = tested on: UACC-62
UO-31 = tested on: UO-31
XF498 = tested on: XF498
CAKI-1 = tested on: CAKI-1

CS(=O)(=O)ON1C(=O)c2ccc(N)cc2C1=O
GI50 (786-0): > 100 µM (inactive)
GI50 (A498): > 100 µM (inactive)
GI50 (A549): > 100 µM (inactive)
GI50 (ACHN): > 100 µM (inactive)
GI50 (CCRF-CEM): 16 µM (inactive)
GI50 (COLO 205): 49.5 µM (inactive)
GI50 (DLD-1): > 65.8 µM (inactive)
GI50 (DMS-114): > 74.5 µM (inactive)
GI50 (DMS-273): > 100 µM (inactive)
GI50 (EKVX): > 100 µM (inactive)
GI50 (HCC 2998): > 100 µM (inactive)
GI50 (HCT-116): > 79.8 µM (inactive)
GI50 (HCT-15): 71.4 µM
GI50 (HL-60): 17.5 µM (inactive)
GI50 (HOP-18): > 100 µM (inactive)
GI50 (HOP-62): > 55.5 µM (inactive)
GI50 (HOP-92): > 100 µM (inactive)
GI50 (HT-29): > 79.3 µM (inactive)
GI50 (IGROV-1): > 100 µM (inactive)
GI50 (K562): 42.8 µM (inactive)
GI50 (KM-20L2): > 100 µM (inactive)
GI50 (KM12): > 100 µM (inactive)
GI50 (LOX IMVI): > 72.6 µM (inactive)
GI50 (LXFL 529): > 78.5 µM (inactive)
GI50 (M14): > 87.3 µM (inactive)
GI50 (M19-MEL): > 59.8 µM (inactive)
GI50 (MOLT-4): 21.4 µM (inactive)
GI50 (Malme-3M): > 100 µM (inactive)
GI50 (NCI-H226): > 100 µM (inactive)
GI50 (NCI-H23): > 100 µM (inactive)
GI50 (NCI-H460): > 100 µM (inactive)
GI50 (NCI-H522): 19.4 µM (inactive)
GI50 (OVCAR-3): > 100 µM (inactive)
GI50 (OVCAR-4): > 100 µM (inactive)
GI50 (OVCAR-5): > 100 µM (inactive)
GI50 (OVCAR-8): 21.7 µM (inactive)
GI50 (RPMI-8226): 23.8 µM (inactive)
GI50 (RXF 393): > 40.9 µM (inactive)
GI50 (RXF 631): > 100 µM (inactive)
GI50 (SF-268): > 50.6 µM (inactive)
GI50 (SF-295): > 100 µM (inactive)
GI50 (SF-539): > 72.9 µM (inactive)
GI50 (SK-MEL-28): > 49.4 µM (inactive)
GI50 (SK-MEL-2): > 100 µM (inactive)
GI50 (SK-MEL-5): > 100 µM (inactive)
GI50 (SK-OV-3): > 100 µM (inactive)
GI50 (SN12C): > 100 µM (inactive)
GI50 (SNB-19): > 100 µM (inactive)
GI50 (SNB-75): > 100 µM (inactive)
GI50 (SNB-78): > 100 µM (inactive)
GI50 (SR): 30 µM (inactive)
GI50 (SW-620): 52.1 µM (inactive)
GI50 (TK-10): > 100 µM (inactive)
GI50 (U-251): > 100 µM (inactive)
GI50 (UACC-257): > 31.6 µM (inactive)
GI50 (UACC-62): > 64 µM (inactive)
GI50 (UO-31): > 100 µM (inactive)
GI50 (XF498): > 79.1 µM (inactive)

CC1(C)C(O)OC(O)C1(C)C (stereo unspecified)
GI50 (786-0): 93.1 µM (inactive)
GI50 (A549): > 100 µM (inactive)
GI50 (ACHN): > 100 µM (inactive)
GI50 (CAKI-1): > 100 µM (inactive)
GI50 (CCRF-CEM): 46 µM (inactive)
GI50 (COLO 205): > 100 µM (inactive)
GI50 (DLD-1): 52.5 µM (inactive)
GI50 (DMS-114): > 100 µM (inactive)
GI50 (DMS-273): 70.5 µM (inactive)
GI50 (EKVX): > 100 µM (inactive)
GI50 (HCC 2998): > 100 µM (inactive)
GI50 (HCT-116): 33.9 µM (inactive)
GI50 (HCT-15): 28.1 µM
GI50 (HL-60): 42.9 µM (inactive)
GI50 (HOP-18): 49.1 µM (inactive)
GI50 (HOP-62): > 100 µM (inactive)
GI50 (HOP-92): > 100 µM (inactive)
GI50 (HT-29): 62.4 µM (inactive)
GI50 (IGROV-1): > 100 µM (inactive)
GI50 (K562): 57.9 µM (inactive)
GI50 (KM-20L2): > 100 µM (inactive)
GI50 (KM12): > 100 µM (inactive)
GI50 (LOX IMVI): 46.9 µM (inactive)
GI50 (LXFL 529): 74 µM (inactive)
GI50 (M14): 65.2 µM (inactive)
GI50 (M19-MEL): > 100 µM (inactive)
GI50 (MOLT-4): 49.2 µM (inactive)
GI50 (Malme-3M): > 100 µM (inactive)
GI50 (NCI-H226): 18.1 µM (inactive)
GI50 (NCI-H460): > 100 µM (inactive)
GI50 (OVCAR-3): 30.9 µM (inactive)
GI50 (OVCAR-4): > 100 µM (inactive)
GI50 (OVCAR-5): > 100 µM (inactive)
GI50 (OVCAR-8): 41.8 µM (inactive)
GI50 (RPMI-8226): 70 µM (inactive)
GI50 (RXF 393): 32.6 µM (inactive)
GI50 (RXF 631): 61 µM (inactive)
GI50 (SF-295): > 100 µM (inactive)
GI50 (SK-MEL-28): 43.4 µM (inactive)
GI50 (SK-MEL-2): 89.7 µM (inactive)
GI50 (SK-MEL-5): 32.8 µM (inactive)
GI50 (SK-OV-3): > 100 µM (inactive)
GI50 (SN12C): 82.2 µM (inactive)
GI50 (SNB-19): 66.8 µM (inactive)
GI50 (SNB-75): 35.2 µM (inactive)
GI50 (SNB-78): > 100 µM (inactive)
GI50 (SW-620): 49.7 µM (inactive)
GI50 (TK-10): > 100 µM (inactive)
GI50 (U-251): > 100 µM (inactive)
GI50 (UACC-257): 34.5 µM (inactive)
GI50 (UACC-62): 91 µM (inactive)
GI50 (UO-31): 57.3 µM (inactive)
GI50 (XF498): 47 µM (inactive)

From ChEMBL document CHEMBL1201862, “PubChem BioAssay data set” (2004)
